Experimental data published in patent US4657927A, “Malonato platinum compounds” (Research Corporation, priority 1983, dated 1987).

How the values were obtained:
[1] = test system: Sarcoma 180; experiment: Antitumor activity, solid sarcoma 180 tumor, T/C of tumor weights at day 10 (Table I); format: in vivo, female Swiss white mice; settings: single i.p. injection day 1, slurry in H2O
Protocol: The compounds of the invention were tested for antitumor activity, i.e., for sensitivity to a planar dsp^2 platinum(II) coordination compound or an octahedral d^2 sp^3 platinum(IV) coordination compound using our standard screening tumor, solid sarcoma 180 tumor in female Swiss white mice, following standard protocols for this testing as set by the National Cancer Institute. (Cancer Chemotherapy Rep., 25 (1962)).
For these tests an S 180 tumor taken from a sacrificed mouse was disected free of superfluous tissue and cut under sterile conditions into approximately 10 milligram size pieces. These tissue pieces were then implanted by trocar in the left axillary region, subcutaneously, in new mice. The mice were, on the average, approximately four weeks old and weighed 18-20 grams. Taking day 0 as the day of implant, the animals were sacrificed on day 10. The tumors were excised and weighed and the ratio of the weights of the tumors in mice in the treated animals to the control set of animals was obtained. This ratio, multiplied by 100, is given as the T/C ratio in Table I.
For the first set of tests the coordination compound was freshly dissolved in sterile distilled water and injected intraperitoneally on day 1 into each of the test mice. The volume of the injection was usually 1/2 ml. In some cases, in order to get an active dose into the animal where the chemical was not soluble in this amount of solvent, a fine dispersion was prepared of the dose needed for the test. Thus, some of our test results were obtained on animals where a slurry of the compound was injected. These are so noted in Table I below. In addition, for some of the compounds, there was injected about 1 ml of solution, either in one single injection, or in 2 injections given a few hours apart of 1/2 ml each. These injections were initially given in 4 different dose levels for each new compound with 6 mice in each dose level. The tests covered a dose range from a low ineffective dose, to an upper dose level which produced some deaths within the time period of the experiment.

[2] = test system: Sarcoma 180; experiment: Large Sarcoma 180 regressions, injection on day 8 (Table II); format: in vivo, female Swiss white mice; settings: single i.p. injection on day 8, H2O solution
Protocol: In addition to the day 1 injections described above, in a number of case injections were delayed until day 8 of tumor growth. In these cases the tumor was usually at least larger than 1/2 gm, as estimated by palpation. The animals were then injected and observed for a period of approximately 60 days. Activity was measured by the number of animals whose tumors had regressed to the vanishing point, while still allowing the animal to survive for this time period. Such test results are described in TABLE II below.

[3] = test system: L1210; experiment: Confirmatory antitumor test at the National Cancer Institute, L1210 (Table IV); format: in vivo, Mice; settings: daily injections days 1-9, i.p.
Description: Samples of the malonato diammine and malonato ethylene diamine complexes of platinum(II) were submitted to the Drug Research and Development Branch of the National Cancer Institute for screening for antitumor activity against the L1210 tumor in mice. They confirm the activity of the compounds of the invention.

[4] = Hydrolysis by U.V./vis spectral and conductivity studies; format: physicochemical; settings: recrystallization from boiling water with malonic acid
Description: *U.V./via spectral and conductivity studies have shown that hydrolysis is negligible.

For O=C(O)CC(=O)O.[NH2-].[NH2-].[Pt+2] [Malonatodiammineplatinum (II), Malonatodiammineplatinum(II)], the “No. of Deaths” value ([1]; 10 mg/kg) was 0, the T/C ([1]; 10 mg/kg) was 76 and the “No. of Deaths” value ([1]; 15 mg/kg) was 0. For the same molecule, the T/C ([1]; 15 mg/kg) was 38, the “No. of Deaths” value ([1]; 20 mg/kg) was 0 and the T/C ([1]; 20 mg/kg) was 64. For the same molecule, the “No. of Deaths” value ([1]; 25 mg/kg) was 0, the T/C ([1]; 25 mg/kg) was 31 and the “No. of Deaths” value ([1]; 30 mg/kg) was 1/6. The T/C ([1]; 30 mg/kg) was 7, the “No. of Deaths” value ([1]; 40 mg/kg) was 6/6 and the “No. of Deaths” value ([1]; 50 mg/kg) was 5/6. The T/C ([1]; 50 mg/kg) was 1, the “No. of Deaths” value ([1]; 60 mg/kg) was 6/6 and the Deaths ([2]; 14 mg/kg) was 4. The “Total Number of Regressions” value ([2]; 14 mg/kg) was 2, the Deaths ([2]; 16 mg/kg) was 3 and the “Total Number of Regressions” value ([2]; 16 mg/kg) was 3. The Deaths ([2]; 18 mg/kg) was 2, the “Total Number of Regressions” value ([2]; 18 mg/kg) was 4 and the Deaths ([2]; 20 mg/kg) was 1. The “Total Number of Regressions” value ([2]; 20 mg/kg) was 5, the “% Increase in Lifespan” value ([3]; 12.5 mg/kg) was 115% and the “% Increase in Lifespan” value ([3]; 25 mg/kg) was 133%. The “% Increase in Lifespan” value ([3]; 50 mg/kg) was 163% and the hydrolysis [4] was “negligible”.
